Here are results for 7 compounds from patent publication US20260206755A1, “COMPOUNDS AND COMPOSITIONS HAVING KNOCK-DOWN OR BLOOD FEED INHIBITION ACTIVITY AGAINST INSECT PESTS” (priority 2017, published 2026).

Where two headings read alike, the source gives them in different places.

The series deals with Anopheles stephensi. Description: Anopheles stephensi treated well plate contact test: knockdown and mortality. Type of series: in vivo. The following applies: for mortality at 0.2 ppm / pest or weed control at 0.2 ppm / mortality at 2 ppm / pest or weed control at 2 ppm / mortality at 20 ppm / pest or weed control at 20 ppm / mortality at 200 ppm / pest or weed control at 200 ppm: Anopheles stephensi; for pest or weed control at 0.2 ppm / pest or weed control at 2 ppm / pest or weed control at 20 ppm / pest or weed control at 200 ppm: read-out: Knock Down, without TFNA-AM. The gist of the method:
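Well surfaces coated with ethanol solution of compound at a defined concentration, alone or with 2 ppm TFNA-AM, then dried. Five non-blood-fed 2–5-day-old adult females per well, fed 10% sucrose; knockdown scored at 1 hour, mortality at 24 and 48 hours, replicate means reported.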

Where [1] appears, read: test compound 0.2 ppm plus 2 ppm TFNA-AM, after 24 hours.
Setting [2] is: test compound 0.2 ppm plus 2 ppm TFNA-AM, after 48 hours.
[3] abbreviates: test compound 0.2 ppm plus 2 ppm TFNA-AM, knockdown after 1 hour.
The mark [4] stands for this setting: test compound 0.2 ppm, without TFNA-AM, after 24 hours.
[5] abbreviates: test compound 0.2 ppm, without TFNA-AM, after 48 hours.
The mark [6] stands for this setting: test compound 0.2 ppm, without TFNA-AM, knockdown after 1 hour.
Setting [7] is: test compound 2 ppm plus 2 ppm TFNA-AM, after 24 hours.
Setting [8] is: test compound 2 ppm plus 2 ppm TFNA-AM, after 48 hours.
Where [9] appears, read: test compound 2 ppm plus 2 ppm TFNA-AM, knockdown after 1 hour.
[10] abbreviates: test compound 2 ppm, without TFNA-AM, after 24 hours.
Where [11] appears, read: test compound 2 ppm, without TFNA-AM, after 48 hours.
Where [12] appears, read: test compound 2 ppm, without TFNA-AM, knockdown after 1 hour.
Where [13] appears, read: test compound 20 ppm plus 2 ppm TFNA-AM, after 24 hours.
[14] abbreviates: test compound 20 ppm plus 2 ppm TFNA-AM, after 48 hours.
Setting [15] is: test compound 20 ppm plus 2 ppm TFNA-AM, knockdown after 1 hour.
Setting [16] is: test compound 20 ppm, without TFNA-AM, after 24 hours.
[17] abbreviates: test compound 20 ppm, without TFNA-AM, after 48 hours.
Where [18] appears, read: test compound 20 ppm, without TFNA-AM, knockdown after 1 hour.
Setting [19] is: test compound 200 ppm plus 2 ppm TFNA-AM, after 24 hours.
Where [20] appears, read: test compound 200 ppm plus 2 ppm TFNA-AM, after 48 hours.
Where [21] appears, read: test compound 200 ppm plus 2 ppm TFNA-AM, knockdown after 1 hour.
[22] abbreviates: test compound 200 ppm, without TFNA-AM, after 24 hours.
[23] abbreviates: test compound 200 ppm, without TFNA-AM, after 48 hours.
The mark [24] stands for this setting: test compound 200 ppm, without TFNA-AM, knockdown after 1 hour, adult females.
Where [25] appears, read: test compound 0.2 ppm, without TFNA-AM, after 24 hours, read-out: mortality % 24, without TFNA-AM.
The mark [26] stands for this setting: test compound 0.2 ppm, without TFNA-AM, after 48 hours, read-out: mortality % 48, without TFNA-AM.
[27] abbreviates: test compound 2 ppm, without TFNA-AM, after 24 hours, read-out: mortality % 24, without TFNA-AM.
[28] abbreviates: test compound 2 ppm, without TFNA-AM, after 48 hours, read-out: mortality % 48, without TFNA-AM.
Where [29] appears, read: test compound 20 ppm, without TFNA-AM, after 24 hours, read-out: mortality % 24, without TFNA-AM.
The mark [30] stands for this setting: test compound 20 ppm, without TFNA-AM, after 48 hours, read-out: mortality % 48, without TFNA-AM.
Where [31] appears, read: test compound 200 ppm, without TFNA-AM, after 24 hours, read-out: mortality % 24, without TFNA-AM.
Setting [32] is: test compound 200 ppm, without TFNA-AM, after 48 hours, read-out: mortality % 48, without TFNA-AM.

For `CN(C(=O)c1ccccc1)c1cccc(C(=O)Nc2c(Br)cc(C(F)(C(F)(F)F)C(F)(F)F)cc2C(F)(F)F)c1F` [Broflanilide], the “mortality % 24, with TFNA-AM” value amounted to 87% under setting [1], 100% under setting [7], 100% under setting [13] and 100% under setting [19]. Moreover, the “mortality % 48, with TFNA-AM” value was determined as 93% under setting [2], 100% under setting [8], 100% under setting [14] and 100% under setting [20]. Besides, the “Knock Down, with TFNA-AM” value is, setting by setting: under setting [3], 100%; under setting [9], 100%; under setting [15], 93%; under setting [21], 87%. Moreover, the “mortality % 24, without TFNA-AM” value came out at 0% under setting [4], 100% under setting [10], 100% under setting [16] and 100% under setting [22]. Further, the “mortality % 48, without TFNA-AM” value reads like this: under setting [5], 20%; under setting [11], 100%; under setting [17], 100%; under setting [23], 100%. For the same compound, the “Knock Down, without TFNA-AM” value came out at 0% under setting [6], 0% under setting [12], 0% under setting [18] and 0% under setting [24].

One may read the mortality as the percentage killed. On to `CCOC(=O)NCCOc1ccc(Oc2ccccc2)cc1` [Fenoxycarb], for which the mortality at 0.2 ppm runs as follows: under setting [25], 0%; under setting [26], 0%. Besides, the pest or weed control at 0.2 ppm under setting [6] was 0%. Also, the mortality at 2 ppm reads like this: under setting [27], 0%; under setting [28], 0%. In addition, under setting [12], the pest or weed control at 2 ppm was found to be 0%. The mortality at 20 ppm reads like this: under setting [29], 0%; under setting [30], 0%. In addition, the pest or weed control at 20 ppm under setting [18] was determined as 20%. The mortality at 200 ppm is, setting by setting: under setting [31], 0%; under setting [32], 0%. For the same compound, under setting [24], the pest or weed control at 200 ppm came to 20%. Also, the “mortality % 24, with TFNA-AM” value runs as follows: under setting [1], 40%; under setting [7], 80%; under setting [13], 80%; under setting [19], 80%. Besides, the “mortality % 48, with TFNA-AM” value under setting [2] is reported as 40%; the “mortality % 48, with TFNA-AM” value under setting [8] was 80%; the “mortality % 48, with TFNA-AM” value under setting [14] is on record as 80%; the “mortality % 48, with TFNA-AM” value under setting [20] was determined as 80%. For the same compound, the “Knock Down, with TFNA-AM” value came out at 100% under setting [3], 100% under setting [9], 100% under setting [15] and 100% under setting [21].

For `CC(c1ccc(C(F)(F)F)nc1)S(C)(=O)=NC#N` (stereo not drawn) [Sulfoxaflor], the mortality at 0.2 ppm runs as follows: under setting [25], 0%; under setting [26], 30%. The pest or weed control at 0.2 ppm under setting [6] is 0%. In addition, the mortality at 2 ppm under setting [27] came to 0% and the mortality at 2 ppm under setting [28] came to 60%. Moreover, under setting [12], the pest or weed control at 2 ppm was 0%. The mortality at 20 ppm under setting [29] was 70% and the mortality at 20 ppm under setting [30] came out at 80%. Moreover, the pest or weed control at 20 ppm under setting [18] is 0%. Also, the mortality at 200 ppm is 80% under setting [31] and 100% under setting [32]. Under setting [24], the pest or weed control at 200 ppm was determined as 20%. For the same compound, the “mortality % 24, with TFNA-AM” value under setting [1] turned out to be 0% and the “mortality % 24, with TFNA-AM” value under setting [19] turned out to be 90%. For the same compound, the “mortality % 48, with TFNA-AM” value is on record as 20% under setting [2], 90% under setting [14] and 100% under setting [20]. In addition, the “Knock Down, with TFNA-AM” value is given as 100% under setting [3], 100% under setting [9], 100% under setting [15] and 100% under setting [21].

As to `CCOc1cc(C(C)(C)C)ccc1C1COC(c2c(F)cccc2F)=N1` (stereo not drawn) [Etoxazole], the mortality at 0.2 ppm is, setting by setting: under setting [25], 0%; under setting [26], 0%. Moreover, the pest or weed control at 0.2 ppm under setting [6] came to 0%. In addition, the mortality at 2 ppm amounted to 0% under setting [27] and 0% under setting [28]. The pest or weed control at 2 ppm under setting [12] is 0%. The mortality at 20 ppm stood at 0% under setting [29] and 0% under setting [30]. Further, the pest or weed control at 20 ppm under setting [18] amounted to 0%. The mortality at 200 ppm is, setting by setting: under setting [31], 0%; under setting [32], 0%. In addition, under setting [24], the pest or weed control at 200 ppm stood at 0%. Moreover, the “mortality % 24, with TFNA-AM” value is recorded as 40% under setting [1], 60% under setting [7], 60% under setting [13] and 80% under setting [19]. Also, the “mortality % 48, with TFNA-AM” value is, setting by setting: under setting [2], 40%; under setting [8], 40%; under setting [14], 60%; under setting [20], 80%. Further, the “Knock Down, with TFNA-AM” value stood at 100% under setting [3], 100% under setting [9], 100% under setting [15] and 100% under setting [21].

Take `NC(=O)c1cnccc1C(F)(F)F` [TFNA-AM, 4-(trifluoromethyl)pyridine-3-carboxamide]: the mortality at 2 ppm runs as follows: (TFNA-AM 2 ppm alone, after 24 hours, read-out: mortality % 24, TFNA-AM alone) 18.3%; (TFNA-AM 2 ppm alone, after 48 hours, read-out: mortality % 48, TFNA-AM alone) 11.7%. Besides, for the setting “TFNA-AM 2 ppm alone, knockdown after 1 hour”, the “Knock Down, TFNA-AM alone” value amounted to 75.5%.

With `O=[N+]([O-])c1cc(C(F)(F)F)c(Cl)c([N+](=O)[O-])c1Nc1ncc(C(F)(F)F)cc1Cl` [Fluazinam], the mortality at 0.2 ppm under setting [25] turned out to be 0% and the mortality at 0.2 ppm under setting [26] was found to be 0%. In addition, the pest or weed control at 0.2 ppm under setting [6] came to 0%. The mortality at 2 ppm under setting [27] was determined as 0% and the mortality at 2 ppm under setting [28] stood at 0%. Besides, under setting [12], the pest or weed control at 2 ppm came out at 0%. The mortality at 20 ppm by setting is: under setting [29], 70%; under setting [30], 80%. The pest or weed control at 20 ppm under setting [18] amounted to 20%. Also, the mortality at 200 ppm runs as follows: under setting [31], 90%; under setting [32], 90%. Moreover, the pest or weed control at 200 ppm under setting [24] is 20%. The “mortality % 24, with TFNA-AM” value under setting [1] stood at 30%; the “mortality % 24, with TFNA-AM” value under setting [7] was 30%; the “mortality % 24, with TFNA-AM” value under setting [13] was determined as 100%; the “mortality % 24, with TFNA-AM” value under setting [19] amounted to 100%. The “mortality % 48, with TFNA-AM” value reads like this: under setting [2], 20%; under setting [8], 20%; under setting [14], 100%; under setting [20], 100%. The “Knock Down, with TFNA-AM” value is 100% under setting [3], 100% under setting [9], 100% under setting [15] and 100% under setting [21].

In the case of `O=C1C=C(N(Cc2ccc(Cl)nc2)CC(F)F)CO1` [Flupyradifurone], the “mortality % 24, with TFNA-AM” value is 10% under setting [1], 20% under setting [7], 50% under setting [13] and 70% under setting [19]. The “mortality % 48, with TFNA-AM” value is 0% under setting [2], 20% under setting [8], 60% under setting [14] and 90% under setting [20]. The “Knock Down, with TFNA-AM” value is, setting by setting: under setting [3], 100%; under setting [9], 100%; under setting [15], 100%; under setting [21], 100%. Moreover, the “mortality % 24, without TFNA-AM” value was 0% under setting [4], 0% under setting [10], 0% under setting [16] and 20% under setting [22]. In addition, the “mortality % 48, without TFNA-AM” value stood at 0% under setting [5], 0% under setting [11], 10% under setting [17] and 30% under setting [23]. The “Knock Down, without TFNA-AM” value under setting [6] was found to be 0%; the “Knock Down, without TFNA-AM” value under setting [12] is reported as 0%; the “Knock Down, without TFNA-AM” value under setting [18] stood at 0%; the “Knock Down, without TFNA-AM” value under setting [24] turned out to be 0%.
